Results on 2 compounds are retold here after patent publication US12458641B2, “NK-3 receptor antagonists for therapeutic or cosmetic treatment of excess body fat” (Ogeda SA, priority 2015, dated 2025).

The conditions of assay [1]: rats fed standard chow or high-fat diet (Li et al., 2014); cited from earlier work.
A short description of assay [2]: 13-week once-daily oral dosing in cynomolgus monkeys: body weight. The class given is in vivo, cynomolgus monkeys (Macaca fascicularis). The note with it: female monkeys, 13 weeks, 50 mg/kg (FIG. 3), vehicle group gained about 12%. From the text: The cynomolgus monkey was selected as a relevant species because of the similarity of nonhuman primates (NHP) to humans. The route of administration is oral consistent with the intended route in humans.
(§1) Sexually-mature (age range of ˜4 years at pre-dose), purpose-bred cynomolgus monkeys (Macaca fascicularis) of Asian origin were used. Sexual maturity was proven by recording of at least two menstrual bleedings (with 20-to-50 days between menstruations) prior to entry into the study.
NHPs were maintained on a standard lab diet of twice-daily offerings of commercial pellets for primates supplemented with fresh fruit and bread. Dietary and environmental enrichment were also provided through the study duration. Animals were housed in a climate (19-25° C.) and humidity (40-70%) controlled environment with artificial lighting controlled automatically to give a cycle of 12 hours light and 12 hours dark.
NHPs were divided into three treatment groups: vehicle control (N=6) and compound k-5 Dose Groups of 10 mg/kg (N=4) and 50 mg/kg (N=6), respectively. All NHPs were dosed once daily (morning) by oral gavage over the 13 week treatment period of the study. The dose vehicle was 0.5% methylcellulose (Methocel® from Colorcon) in water. […]

Assay [3] in a line: 13-week oral dosing in cynomolgus monkeys: whole-body DEXA scan (lean mass, bone mineral density, bone mineral content, fat mass). It is filed as in vivo, cynomolgus monkeys (Macaca fascicularis). The procedure: as §1
(§2) NHPs were divided into three treatment groups: vehicle control (N=6) and compound k-5 Dose Groups of 10 mg/kg (N=4) and 50 mg/kg (N=6), respectively. All NHPs were dosed once daily (morning) by oral gavage over the 13 week treatment period of the study. The dose vehicle was 0.5% methylcellulose (Methocel® from Colorcon) in water.
All NHPs were subjected to a body weight measurement and DEXA scan (Dual-energy X-ray absorptiometry, Hologic Dexa QDR® 4000) in the pre-dose phase and in the final week (week-13) of the dosing phase. The measurements were made under ketamine anesthesia with dorbene and antisedan.
The whole body was scanned by DEXA for measurement of lean mass, bone mineral density, bone mineral content and fat mass.

In assay [4] the test system is leptin. Put plainly: 13-week oral dosing in cynomolgus monkeys: serum leptin by ELISA. The class given is in vivo, cynomolgus monkeys (Macaca fascicularis). The procedure:
as §2
All NHPs were subjected to leptin levels measurements. Blood samples were collected at 08 h00 in the morning from overnight-fasted animals on Day-2 prior to dosing (‘pre-dose’), 24 h after the initial dosing, on day 52 of dosing and on day 86 of dosing. Serum samples were derived from these blood samples and stored frozen (−20° C.) until analysis. Leptin concentrations in these serum samples were determined by ELISA assay (Monkey Kit: MyBiosource Cat. N° MBS705354) based upon linear regression analysis against a standard curve.
Background: An ELISA detects its analyte on a solid surface through an enzyme-linked reagent.

The nature of assay [5]: Multiple ascending dose administration in healthy women: body weight. It is filed as in vivo, human. The note with it: for Weight D 42 / Weight Screening: group mean; for Weight D 42: 21 days after last dose; for Weight Screening: before dosing (D-28 to D-2); for Pre vs Post Difference / Pre vs Post Difference (%): screening vs D42. As for the experimental part:
Three Panels A, B, and C, each consisting of 6 healthy women, were randomized to receive different dose level of compound k-5. In those 3 panels, compound k-5 is administered for 21 consecutive days.
Subjects were residential from the day before first dosing (D-1) until Day 24 (=72 hours after the last dose intake on Day 21). Weekly non-residential visits were organized on Day 28, Day 35 (±1 day) and a follow-up visit on Day 42 (±2 days). Ascending multiple doses of compound k-5 were administered in a once-daily regimen for 21 consecutive days. […] Subjects received the trial medication in a q.d. regimen and after a light breakfast.
Subjects were recruited on the basis of their medical history and health status. Especially, subjects meeting all of the following criteria were eligible to participate in this study: • 1) Premenopausal females between 18 and 45 years of age inclusive. • 2) Healthy with no clinically significant abnormalities as determined by medical history, physical examination, blood chemistry assessments, hematologic assessments, coagulation and urinalysis, measurement of vital signs, and ECG. Isolated out-of-range values judged by the physician to be of no clinical significance were allowed. […] Weight Measurement
The weight was measured at screening, which took place between 28 and 2 days before start of dosing (D-28 to D-2), and at the end-of-study visit (D42, i.e. 21 days after cessation of study compound intake).
A two-tailed T-test for paired samples was used to explore the difference between the screening and post-study values for weight.

Assay [6] can be described thus: Body weight and BMI in healthy women with normal corpulence. The class given is in vivo, human. The conditions noted are these: 60 mg for 21 consecutive days, individual subjects. The procedure: Healthy women with normal corpulence, i.e. having a BMI ranging from 18.5 to 25 kg/m^2, received 60 mg of compound k-5 for 21 consecutive days.
(§3) The weight was measured at screening which took place between 28 and 2 days before start of dosing (D-28 to D-2), as well as on the follow-up visit planned on D42 (21 days after cessation of study compound intake).

Assay [7] is described as follows: Body weight and BMI in overweight women. The conditions noted are these: 180 mg for 21 consecutive days, individual subjects. It is filed as in vivo, human. The procedure: Overweight women, i.e. having a BMI ranging from 25 to 30 kg/m^2, received 180 mg of compound k-5 for 21 consecutive days.
as §3

The subject of assay [8] is leptin. The assay can be described thus: Plasma leptin level in women (placebo-controlled, ELISA). The class given is in vivo, human. The conditions noted are these: non-obese premenopausal women; 20, 60 and 180 mg once daily, all dose levels; p<0.05 paired t-test (FIG. 4). From the text:
This was a randomized, double-blind, placebo-controlled study. All subjects provided written informed consent prior to screening for study eligibility. Healthy female volunteers aged 20-45 years with a body mass index of 19-30 kg/m^2 were included. Participants needed to be in good physical health including the presence of a regular ovulatory menstrual cycle and the discontinuation of all hormonal contraceptive methods at least 3 months prior to screening. Three panels of 8 non-obese female volunteers (median BMI of each panel: 22.3, 23.4, 25.2 kg/m^2) each were administered capsules of compound k-5 or matching placebo in a 6:2 ratio for 21 days. Subjects received the study medication in a once daily regimen after a light standardized breakfast. The participants in these panels were synchronized for their menstrual cycle; i.e. the initiation of dosing was always on Day3±2 of the menstrual cycle. The dose levels investigated were 20, 60 and 180 mg of compound k-5. Blood samples were collected on the day prior to dosing as well as on Day 21 (the final day of dosing) and plasma fractions were retained and stored frozen (−20° C.) until analysis. Leptin concentrations in these plasma samples were determined by ELISA assay (Human Leptin Kit: R&D Systems, Cat. N° DLP00) based upon linear regression analysis against a standard curve.

For assay [9], the system named is leptin. The assay can be described thus: Plasma leptin level in female rats over the estrous cycle (ELISA, AUC). The class given is in vivo. The note with it: 10 mg/kg oral BID, p<0.05 paired t-test (FIG. 5).
Method: Daily plasma samples were collected each morning from sexually-mature female rats and analyzed for peak estrogen levels (coincident with proestrus) in order to define the timing of the estrous cycle for individual rats. Next, rats were dosed orally BID (i.e. twice a day) with vehicle (0.5% methylcellulose) over a 4-day ‘baseline’ estrous cycle. Plasma samples were collected daily, each morning, and stored frozen prior to analysis for leptin. […] Plasma samples were collected daily, each morning, and stored frozen prior to analysis for leptin. In a single experiment, plasma samples collected daily during both the ‘baseline’ and ‘treatment’ cycles were analyzed in a common experiment by ELISA assay based upon linear regression analysis against a standard curve. Leptin levels over the 4-day estrous cycle were calculated for individual rats by determination of AUC (area-under-the-curve) using credited data analysis software (GraphPad Prism).

Each structure is given as a SMILES string. Values joined by “and” are separate entries in the source; they are usually repeats but may differ in a detail not shown here. Equal entries are not always repeated.

On to `CC[C@H](NC(=O)c1c(C)c(-c2ccccc2)nc2ccccc12)c1ccccc1` [SB222200, 3-Methyl-2-phenyl-N-[(1S)-1-phenylpropyl]-4-quinolinecarboxamide], for which the effect on weight result in assay [1] is “no effect on weight was observed”.

For `Cc1nsc(-c2nnc3n2CCN(C(=O)c2ccc(F)cc2)[C@@H]3C)n1` [k-5, (R)-(4-fluorophenyl)(8-methyl-3-(3-methyl-1,2,4-thiadiazol-5-yl)-5,6-dihydro-[1,2,4]triazolo[4,3-a]pyrazin-7(8H)-yl)methanone], the “change in mean weight over the course of the dosing phase” value in assay [2] is listed as “no significant change”. In addition, the “% fat/total mass, treated versus vehicle-treated group” value in assay [3] (50 mg/kg, week 13, N=6/group) is “statistically-significant difference”. The “change in % fat/total mass over the 13-week treatment period (DEXA)” value in [3] (10 and 50 mg/kg dose groups, pre-dose vs week 13, increased in the vehicle group (FIG. 1)) was “no significant change”. Besides, in assay [4] (50 mg/kg oral (FIG. 2), relative to pre-dose and to time-matched vehicle group), the “serum leptin levels 24-hours after initial dosing” value is recorded as “significantly increases”. The “serum leptin levels over the duration of dosing relative to vehicle-treated group” value in assay [4] (50 mg/kg oral once daily, up to day 86 (FIG. 2)) was “persistently higher”. Further, the “Weight D 42” value in [5] (20 mg once daily for 21 days) is 58.0 kg; in assay [5] (60 mg once daily for 21 days) it was 71.9 kg; in [5] (180 mg once daily for 21 days), 66.9 kg; in [6] (women BMI 18.5 to 25 kg/m^2, D42), 64.2 kg and 61 kg and 67.8 kg; in assay [7] (overweight women, D42), 65.2 kg and 67 kg and 84 kg. The “Weight Screening” value was 58.2 kg in assay [5] (20 mg once daily for 21 days); 73.3 kg in [5] (60 mg once daily for 21 days); 69.0 kg in [5] (180 mg once daily for 21 days); 66.4 kg and 63 kg and 68.3 kg in [6] (women BMI 18.5 to 25 kg/m^2, before dosing); 68 kg and 71.2 kg and 87 kg in assay [7] (overweight women BMI 25 to 30 kg/m^2, before dosing). Also, the results for the “Pre vs Post Difference” value in assay [5] (20 mg once daily for 21 days), in [5] (60 mg once daily for 21 days) and in assay [5] (180 mg once daily for 21 days) were -0.13 kg, -1.38 kg and -2.10 kg, respectively. Besides, the “Pre vs Post Difference (%)” value in assay [5] (20 mg once daily for 21 days) is on record as −0.23%; in [5] (60 mg once daily for 21 days), −1.92%; in assay [5] (180 mg once daily for 21 days), −3.14%. Further, in assay [5] (20, 60, 180 mg once daily for 21 days, healthy women), the “weight lowering with increasing doses” value is listed as “dose-dependent trend exists towards weight lowering”. The “BMI D 42” value in assay [6] (D42) is 21.45 and 22.95 and 21.39; in [7] (D42) it was 26.79 and 26.17 and 26.21. Also, the BMI screening is 22.18 and 23.71 and 21.55 in assay [6] (before dosing); 27.94 and 27.81 and 27.15 in assay [7] (before dosing). Moreover, the “Difference” value in assay [6] (screening vs D42) is -2.2 kg and -2 kg and -0.5 kg; in assay [7] (screening vs D42) it was -2.8 kg and -4.2 kg and -3 kg. Also, the “Difference (%)” value in assay [6] (screening vs D42) is −3.43% and −3.28% and −0.74%; in assay [7] (screening vs D42) it was −4.29% and −6.27% and −3.57%. The “leptin levels following 21 days of treatment relative to pre-dose levels” value in assay [8] is given as “increases serum leptin levels”. In addition, the “plasma leptin levels over the 4-day estrous cycle (AUC) versus baseline cycle” value in assay [9] is on record as “increases plasma leptin levels”.
